Data published in patent US20170035914A1, “FUNCTIONALIZED PEPTIDE TRANSPORTERS FOR CELLULAR UPTAKE” (General Electric Company, priority 2015, published 2017).
Primed or numbered codes have the meaning given here. 5‑FAM = 5-FAM fluorescein label; Npys′ = not defined here

How the values were obtained:
live cells = assay: Live-cell fluorescence microscopy of cell uptake and nuclear labeling, cell type not given (FIG. 4, 6, 7, 9); format: cell-based
From the text: (§1) A CPP-cargo construct (comprising a cell-penetrating moiety and a nuclear targeting moiety) was synthesized and conjugated via reactive 3-nitro-2-pyridinesulfenyl cysteine residues, and then purified by HPLC. When exogenously supplemented into cell staining media, these peptide fusions are designed to penetrate living cells and cleave into two subunits within the reducing environment of cell cytoplasm, thereby releasing a FITC-NLS peptide that is actively trafficked into the cell nucleus.

MRC5 cells = assay: Live-cell fluorescence microscopy of cell uptake and nuclear labeling by CPP-NLS-FAM fusion peptides; format: cell-based, human
From the text: as §1, with “nucleus. Thus, the fusion peptide is convenient for discriminating nuclei by live-cell microscopy.” for “nucleus.”
(§2) Live human MRC5 cells and mammalian CHO cells were incubated with fusion proteins as depicted in the flow chart in FIG. 3, steps 1 through 9. […] The FITC-NLS/pVEC fusion was constructed by independently synthesizing a FITC-NLS-Npys peptide and a modified pVEC sequence containing a terminal cysteine residue: […]

CHO cells = assay: as above; format: cell-based; details: mammalian CHO cells, compared with other tested cell-penetrating sequences, FIG. 4
From the text: as §1, with “nucleus. Thus, the fusion peptide is convenient for discriminating nuclei by live-cell microscopy.” for “nucleus.”
as §2

[1] = in the presence of excess monovalent pVEC (~132-156 μg/well), FIG. 7

Substance	effect of monovalent pVEC on cell uptake (live cells; higher amounts of monovalent pVEC (~132 μg/well), FIG. 9)	cell-uptake efficiency and nuclear labeling (MRC5 cells; live human MRC5 cells, compared with other tested cell-penetrating sequences, FIG. 4)	effect of monovalent pVEC on cellular uptake (MRC5 cells; monovalent pVEC ~44 μg/well, MRC5 cells, FIG. 8)	cell-uptake efficiency and nuclear labeling (CHO cells)	cell uptake and nuclear targeting (live cells; [1])	reduction in fusion peptide needed for equal or better cell uptake and nuclear labeling (live cells; [1])	delivery of the NLS-FAM cargo moiety into cells (live cells; various cell types, FIG. 4 legend)
5-FAM-GGPKKKRKVGGC(N-Pys)-OH ({5‑FAM}-GGPKKKRKVGGC(Npys′)-OH) [FITC-NLS-Npys]	enhanced cell uptake	–	–	–	–	–	–
5-FAM-GGPKKKRKVGGCCGGKSHAHAQKRIRRRLIILL (not fully specified; 5-FAM; disulfide-linked) [FAM-NLS-C-C-pVEC, disulfide-linked fusion of Fluorescein-NLS-Npys peptide and modified pVEC peptide]	–	highest	enhanced	highest	enhanced	at least 8 fold	high efficiency
